Source: patent publication EP3878460A1, “GREEN TEA EXTRACT HAVING MODIFIED CONSTITUENT CONTENT AND COMPOSITION COMPRISING SAME” (priority 2018, dated 2020)

How the values were obtained:
[1] = system: hepatocytes (HepG2 cells); test: Hepacytotoxicity, cell viability by MTS assay
Description: In order to investigate the hepatotoxicity of the high-temperature-processed green tea extract obtained in Example 1 (sample 2), hepatocytes (HepG2 cells) acquired from Korean Cell Line Bank were seeded onto a 96-well plate (Falcon) with 1×10^5 cells per well and cultured for 24 hours in a 5% CO2 incubator at 37 °C. Then, after treating with the sample 1 or sample 2 at 5, 10, 25, 50 or 100 µg/mL and culturing further for 24 hours, the medium was removed and cell viability was investigated using a CellTiter 96 AQueous One Solution cell proliferation assay kit (MTS, Promega Co. Madison, WI, USA). After treating the cells with 20 µL of a CellTiter 96 AQueous One Solution cell proliferation assay kit (MTS, Promega Co. Madison, WI, USA) solution added to 100 µL of RPMI1640 (Lonza), the number of live cells was quantified by measuring absorbance at 490 nm. The cell number or cell viability (%) was calculated by the following equation. Cell viability (%) = (absorbanceofsample-treatedgroup−absorbanceofreagentalone)/(absorbanceofnon-treatedgroup−absorbanceofreagentalone) × 100 [formula]
After treating the cells with 20 µL of a CellTiter 96 AQueous One Solution cell proliferation assay kit (MTS, Promega Co. Madison, WI, USA) solution added to 100 µL of RPMI1640 (Lonza), the number of live cells was quantified by measuring absorbance at 490 nm. The cell number or cell viability (%) was calculated as described in Test Example 1.

[2] = system: hepatocytes (HepG2 cells); format: cell-based, human
Description: The experimental condition was the same as in Test Example 1. After treating the cells with the sample 1 or sample 2, the levels of malate dehydrogenase 1 (MDH 1), α-glutathione S-transferase (GSTα) and sorbitol dehydrogenase (SDH) in the cell culture were measured 24 later.
In order to investigate the effect of the EGCG, GCG and EGC among the eight catechins on hepatocyte damage, release of enzymes from hepatocytes due to hepatocyte damage was analyzed using the MILLIPLEX Analyst software (Millipore). The experimental condition was the same as in Test Example 3. After treating the cells with EGCG, GCG or EGC, the levels of malate dehydrogenase 1 (MDH 1), α-glutathione S-transferase (GSTα) and sorbitol dehydrogenase (SDH) in the cell culture were measured 24 later.

[3] = system: HepG2 human liver cancer cells; test: Inhibition of lipid accumulation in hepatocytes (Oil Red O staining, stearic acid load); format: cell-based; settings: 100 µM stearic acid, 48 hours, FIG. 8
Description: In order to investigate the effect of inhibiting lipid accumulation in hepatocytes of the green tea extract sample 1 and sample 2 of Example 1, the inhibition of fat accumulation was compared after culturing HepG2 human liver cancer cells and treating with each sample.
Specifically, hepatocytes (HepG2 cells) were seeded onto a 12-well plate (Falcon) with 1×10^6 cells per well and cultured in a 5% CO2 incubator at 37 °C for 24 hours. Then, after treating with each of the sample 1 and the sample 2 at 3, 10 or 30 µg/mL and 100 µM stearic acid conjugated with bovine serum albumin (BSA), the cells were cultured for 48 hours. After removing the medium and washing with PBS, the cells were fixed with 4% formaldehyde. After incubating with 100% propylene glycol for 5 minutes, the fat in the cells was stained by adding 500 µL of Oil Red O solution (Sigma) per well and culturing the cells for 2 hours. […] After transferring 200 µL of the isopropanol solution to a 96-well plate, the fat accumulated in the cells was quantified by measuring absorbance at 485 nm. The Oil Red O content (%) relative to a control group (0.1% (v/v) DMSO) was calculated by the following equation. Oil red O content (%) = (absorbanceofsample-treatedgroup−absorbanceofcontrolgroup) × 100 [formula] […]

[4] = HepG2 cells, 10, 50, 100 or 200 µM, 24 hours, calculated from cell viability

Compound	LD50 [1, 4]	further results
Oc1cc(O)c2c(c1)O[C@H](c1ccc(O)c(O)c1)[C@H](O)C2 [EC, (-)epicatechin]		LD50 ([1]; human, 24 h): 505.0 µM
Oc1cc(O)c2c(c1)O[C@H](c1cc(O)c(O)c(O)c1)[C@H](O)C2 [EGC, epigallocatechin]	183.9 µM	levels of the three enzymes (MDH 1, GSTα, SDH) in the cell culture [2]: highest; hepacytotoxicity among the eight catechins [1]: highest hepacytotoxicity
O=C(O[C@@H]1Cc2c(O)cc(O)cc2O[C@@H]1c1cc(O)c(O)c(O)c1)c1cc(O)c(O)c(O)c1 [EGCG, epigallocatechin gallate]	355.5 µM	
Oc1cc(O)c2c(c1)O[C@H](c1cc(O)c(O)c(O)c1)[C@@H](O)C2 [GC, gallocatechin]	236.2 µM	
O=C(O[C@@H]1Cc2c(O)cc(O)cc2O[C@H]1c1cc(O)c(O)c(O)c1)c1cc(O)c(O)c(O)c1 [GCG, gallocatechin gallate]	212.7 µM	effect of inhibiting lipid accumulation in hepatocytes compared to EGCG at the same concentration [3]: remarkably excellent effect of inhibiting lipid accumulation in hepatocytes
epicatechin 3-O-gallate [ECG]	209.0 µM	
